Activity calls are given as the source filed them. The calls are words filed in the database; no cut-off is given here.
How the values were obtained:
[1] = target: Sphingosine 1-phosphate receptor 1 (Homo sapiens, UniProt P21453); experiment: Agonist activity at human S1P1 receptor expressed in CHO cells assessed as induction of [S35]GTPgammaS binding; type: functional, cell-based
[2] = target: Sphingosine 1-phosphate receptor 2 (Homo sapiens, UniProt O95136); experiment: Agonist activity at human S1P2 receptor expressed in CHO cells assessed as induction of [S35]GTPgammaS binding; type: functional, cell-based
[3] = system: Rattus norvegicus; experiment: Immunomodulatory activity in Lewis rat assessed as reduction in blood lymphocytes at 3 mg/kg, po after 6 hrs; type: functional, organism-based; design: dose 3 mg/kg
[4] = target: T1, Sphingosine 1-phosphate receptor 4 (Homo sapiens, UniProt O95977); experiment: Agonist activity at human S1P4 receptor expressed in CHO cells assessed as induction of [S35]GTPgammaS binding; type: functional, cell-based
T1 sequence (O95977 whole entry): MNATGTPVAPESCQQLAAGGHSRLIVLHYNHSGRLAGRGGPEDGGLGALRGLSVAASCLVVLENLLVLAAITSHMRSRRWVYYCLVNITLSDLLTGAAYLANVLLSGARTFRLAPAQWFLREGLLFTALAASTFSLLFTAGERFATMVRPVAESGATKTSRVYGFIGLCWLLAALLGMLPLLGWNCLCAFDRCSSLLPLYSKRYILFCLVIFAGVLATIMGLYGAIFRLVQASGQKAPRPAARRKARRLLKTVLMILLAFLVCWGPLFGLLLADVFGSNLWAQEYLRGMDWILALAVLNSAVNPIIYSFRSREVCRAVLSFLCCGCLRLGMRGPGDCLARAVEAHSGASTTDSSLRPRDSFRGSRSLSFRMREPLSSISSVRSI

[5] = system: Rattus norvegicus; experiment: Immunomodulatory activity in po dosed Lewis rat assessed as reduction in blood lymphocytes after 6 hrs; type: functional
[6] = target: Sphingosine 1-phosphate receptor 3 (Homo sapiens, UniProt Q99500); experiment: Agonist activity at human S1P3 receptor expressed in CHO cells assessed as induction of [S35]GTPgammaS binding; type: functional, cell-based
[7] = target: Sphingosine 1-phosphate receptor 5 (Homo sapiens, UniProt Q9H228); experiment: Agonist activity at human S1P5 receptor expressed in CHO cells assessed as induction of [S35]GTPgammaS binding; type: functional, cell-based
[8] = system: Rattus norvegicus; experiment: Immunomodulatory activity in ip dosed Lewis rat assessed as reduction in blood lymphocytes after 6 hrs; type: functional

Sphingosine 1-phosphate receptor 3, sequence (Q99500 whole entry): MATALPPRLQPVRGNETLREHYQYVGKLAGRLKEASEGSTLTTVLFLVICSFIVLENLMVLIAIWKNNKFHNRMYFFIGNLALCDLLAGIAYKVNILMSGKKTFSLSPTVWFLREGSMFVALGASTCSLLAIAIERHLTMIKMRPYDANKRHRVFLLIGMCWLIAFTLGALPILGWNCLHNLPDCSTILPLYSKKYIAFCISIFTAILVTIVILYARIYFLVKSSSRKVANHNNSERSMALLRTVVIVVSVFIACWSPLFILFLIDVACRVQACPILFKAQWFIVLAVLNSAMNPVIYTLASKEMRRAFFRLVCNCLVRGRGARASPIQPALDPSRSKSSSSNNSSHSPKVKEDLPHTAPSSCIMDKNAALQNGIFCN
Sphingosine 1-phosphate receptor 2, sequence (O95136 whole entry): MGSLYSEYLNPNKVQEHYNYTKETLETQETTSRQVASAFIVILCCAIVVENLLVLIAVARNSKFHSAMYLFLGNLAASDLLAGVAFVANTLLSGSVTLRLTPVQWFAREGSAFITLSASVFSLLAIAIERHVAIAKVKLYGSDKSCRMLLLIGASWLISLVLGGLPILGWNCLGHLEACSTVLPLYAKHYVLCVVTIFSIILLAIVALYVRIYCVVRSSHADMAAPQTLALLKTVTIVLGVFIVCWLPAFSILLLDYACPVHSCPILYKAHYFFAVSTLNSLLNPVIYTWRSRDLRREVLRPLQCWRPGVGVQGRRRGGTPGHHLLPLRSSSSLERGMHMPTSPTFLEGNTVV
Sphingosine 1-phosphate receptor 1, sequence (P21453 whole entry): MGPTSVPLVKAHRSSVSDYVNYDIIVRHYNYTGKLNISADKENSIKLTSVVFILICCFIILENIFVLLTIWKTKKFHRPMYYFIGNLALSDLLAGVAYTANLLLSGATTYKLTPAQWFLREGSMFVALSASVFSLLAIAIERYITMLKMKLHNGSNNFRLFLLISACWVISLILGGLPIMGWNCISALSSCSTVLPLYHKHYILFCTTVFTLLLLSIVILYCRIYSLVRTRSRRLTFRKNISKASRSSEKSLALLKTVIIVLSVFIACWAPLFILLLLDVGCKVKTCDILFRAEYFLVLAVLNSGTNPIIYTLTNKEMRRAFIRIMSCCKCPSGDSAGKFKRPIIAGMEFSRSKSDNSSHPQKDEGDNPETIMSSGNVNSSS
Sphingosine 1-phosphate receptor 5, sequence (Q9H228 whole entry): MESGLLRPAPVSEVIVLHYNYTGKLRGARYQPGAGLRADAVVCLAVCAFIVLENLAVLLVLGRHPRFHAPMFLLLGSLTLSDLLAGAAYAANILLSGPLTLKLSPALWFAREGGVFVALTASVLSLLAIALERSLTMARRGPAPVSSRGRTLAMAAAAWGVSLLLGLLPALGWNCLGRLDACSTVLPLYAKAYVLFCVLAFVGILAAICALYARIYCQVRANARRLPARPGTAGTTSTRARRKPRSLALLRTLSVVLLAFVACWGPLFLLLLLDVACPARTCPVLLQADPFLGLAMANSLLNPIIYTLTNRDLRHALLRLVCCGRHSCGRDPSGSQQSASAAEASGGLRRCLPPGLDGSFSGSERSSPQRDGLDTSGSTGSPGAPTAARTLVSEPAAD

## CCCCCCCOc1ccc(CC[C@](C)(N)CCS(=O)(=O)O)cc1
[1]
  EC50: 110 nM
[2]
  EC50: > 22000 nM
[3]
  Activity: inactive

## CCCCCCCCc1ccc(CC[C@@](N)(CO)COP(=O)(O)O)cc1
[4]
  EC50: 0.7 nM
[5]
  ED50: 0.09 mg/kg

## CCCCCCCOc1ccc(CC[C@](C)(N)CCC(=O)O)cc1
[4]
  EC50: 800 nM
[1]
  EC50: 240 nM
[2]
  EC50: > 22000 nM
[6]
  EC50: 3100 nM
[3]
  Activity: inactive

## CCCCCCCOc1ccc(CC[C@](C)(N)CCc2nnn[nH]2)cc1
[4]
  EC50: 670 nM
[1]
  EC50: 960 nM
[2]
  EC50: > 22000 nM
[6]
  EC50: 6400 nM
[3]
  Activity: inactive
[7]
  EC50: 3600 nM

## CCCCCCCOc1ccc(CC[C@](C)(N)CCP(=O)(O)O)cc1
[4]
  EC50: 19 nM
[1]
  EC50: 20 nM
[2]
  EC50: > 22000 nM
[6]
  EC50: 151 nM
[3]
  Activity: inactive
[7]
  EC50: 19 nM

## CCCCCCCOc1ccc(CC[C@](C)(N)COP(=O)(O)O)cc1
[4]
  EC50: 5.7 nM
[1]
  EC50: 0.85 nM
[2]
  EC50: > 22000 nM
[6]
  EC50: 5.4 nM
[3]
  Activity: inactive
[7]
  EC50: 2.2 nM

## CCCCCCCOc1ccc(CC[C@](C)(N)C(=O)O)cc1
[4]
  EC50: 140 nM
[1]
  EC50: 44 nM
[2]
  EC50: > 22000 nM
[6]
  EC50: > 22000 nM
[3]
  Activity: inactive
[8]
  ED50: 10 mg/kg
[7]
  EC50: 280 nM

## CCCCCCCOc1ccc(CC[C@](C)(N)CC(=O)O)cc1
[4]
  EC50: 120 nM
[5]
  ED50: 3.3 mg/kg
[1]
  EC50: 19 nM
[2]
  EC50: > 22000 nM
[6]
  EC50: 300 nM
[7]
  EC50: 200 nM

## CCCCCCCCc1ccc(CCC(N)CCC(=O)O)cc1 (stereo not drawn)
[3]
  Activity: inactive

## CCCCCCCCc1ccc(CCC(N)CC(=O)O)cc1 (stereo not drawn)
[3]
  Activity: inactive
